# Source: patent US9579364B2, “Methods for treating benign prostatic hypertrophy (BPH)” (New York University, priority 2002, dated 2017)
# Marks after values point to notes of the source that are not given here. Bridge positions count the residues as written; N and C are the ends. Square brackets hold non-standard residues; d marks the D form. Peptide text beside a SMILES is read from it. dDab = NCC[C@@H](N)C(=O)O
# B1: bGH: growth hormone (bGH) given to GH deficient mice by Alzet pump (protein, UniProt P01246 27-217, looked up)
# Somatotropin: AFPAMSLSGLFANAVLRAQHLHQLAADTFKEFERTYIPEGQRYSIQNTQVAFCFSETIPAPTGKNEAQQKSDLELLRISLLLIQSWLGPLQFLSRVFTNSLVFGTSDRVYEKLKDLEEGILALMRELEDGTPRAGQILKQTYDKFDTNMRSDDALLKNYGLLSCFRKDLHKTETYLRVMKCRRFGEASCAF
# Assays:
# [1] = tested on: IGF-I receptor; test: IGF-I receptor immunopositive cells in prostate elements; assay type: in vivo
# [2] = tested on: prostate of IGF-I^(−/−) null male mice; test: Restoration of prostate development in IGF-I(-/-) null male mice; assay type: in vivo
# Source text: That IGF-I was also found to be essential for full prostate development was shown in a series of experiments employing IGF-I^(−/−) null male mice.
# [3] = tested on: prostate of castrated IGF-I^(−/−) null male mice; test: Morphometry of histological prostate sections, castrated IGF-I(-/-) null male mice treated 7 days; assay type: in vivo
# Description: Groups of castrated IGF-I^(−/−) null male mice were treated with either vehicle, testosterone in silastic capsules, des(1-3) IGF-I by an infusion through an Alzet pump containing 20 μg per pump, or the combination of testosterone and IGF-I for a period of 7 days.
# In order to determine which specific structure was affected by which hormone, entire urogenital complexes were embedded in paraffin blocks, including the prostate glands, coagulating glands, seminal vesicles, urethra, urinary bladder attached to parts of the ureter, vas deferens, and ampullary glands. These were carefully sectioned such that the areas of prostate development could be analyzed.
# The prostates were then removed, fixed and examined histologically. Morphometric analysis was carried on 30 cross sections of the prostate taken from five different serial sections. Changes in the area of the lumen, epithelial layer and fibromuscular layer were determined. These counts were performed using a Provis ×70 microscope (Olympus) attached to an Olympus DP10 digital camera. Images were taken using a 20× apochromate objective and were captured digitally at a resolution of 386 pixels. Data were tested for statistical significance using the SPSS statistical computer program (SPSS, Inc., Chicago, Ill.). Since assumptions for a parametric test were not valid (Kolmogorov-Sminov p<0.05), all data were evaluated by Kruskall-Wallis analysis of variance and the Mann-Whitney U test as a multiple comparison method.
# [4] = tested on: prostate of castrated IGF-I^(−/−) male mice; test: Prostate glandular tree development, castrated IGF-I(-/-) male mice treated 28 days; assay type: in vivo; settings: 28 days treatment
# Description: (§1) These include transgenic mice overexpressing a GH antagonist (that binds to and inactivates GH receptors making the animals functionally deficient in GH), growth hormone releasing factor receptor (GHRH-R^−/−) knockout mice (Lit/Lit), and Ames (df/df) mice (Prop 1 Deficiency). Deficient prostate development in GH inhibitor overexpression animals was previously reported (see Ruan et al, Endocrinology 140:1984-1989, 1999). Analysis of development was determined by dissecting away the periprostatic fat and teasing the glandular structures from the connective tissue in a solution containing collagenase so that the entire glandular tree could be photographed for later structural analysis. Much the same as in the mice overexpressing the mutant growth hormone, the other GH deficient mice had significant impairment of prostate development (p<0.0002) including a reduction in the number of terminal duct tips (TDTs), the area of the prostate gland, the number of quaternary branches and the number of branch points (TABLE 3). Any differences in these GH deficient mice may in part be due to the fact that the different strains were not analyzed at exactly the same age (Lit/Lit 50 days old, Ames 47 days old and bGH transgenic 44 days of age). The n was also different which may have led to greater significance in the Lit/Lit mice.
# To clearly differentiate between the effects of IGF-I and T on development of the prostate gland, hormone replacement experiments were conducted on IGF-I^(−/−) male mice that had been castrated. In addition to evaluating the effect of IGF-I and T on gland structure development described above, we also evaluated the relative effects of these hormones on development of the stromal compartment of the prostate and also on histology of the glandular compartment. This was accomplished by sectioning and staining the prostate to highlight aspects of development.
# Castrated IGF-I^(−/−) male mice were treated with T (administered by silastic capsules embedded on the backs of animals, subcutaneously). Des (1-3) IGF-I (40 μg/pump) was also implanted subcutaneously.
# [5] = tested on: probasin in epithelial cells of the prostate; test: Probasin immunostaining of prostate sections (FIG. 6); assay type: in vivo, mice; settings: FIG. 6(i-l)
# Source text: FIG. 6 depicts the effect of IGF-1 and/or T on histological appearance of prostate glands during development. Sections are shown through prostate glands from control animals (a, e, i) and animals treated with T alone (b, f, j), IGF-I alone (c, g, k), and IGF-I plus T (d, h, i). […] (i-1) Probasin immunostaining, brown color in the epithelial cells of the prostate. Magnification ×400.
# The relative effects of IGF-I and T on prostate development were also studied in histological sections of whole prostate. This allowed determination of such effects on glandular microstructure and the stromal compartment of the prostate.
# FIG. 6 depicts sections through prostate glands from control animals (FIG. 6(a, e, i)), animals treated with T alone (FIG. 6(b, f, j)), IGF-I alone (FIG. 6(c, g, k)), and IGF-I plus T (FIG. 6(d, h, i)).
# [6] = cited from earlier work
# [7] = tested on: all five somatostatin receptor subtypes; settings: cited from earlier work
# [8] = tested on: IGF-IR signaling; settings: chemical library screen; cited from earlier work
# [9] = tested on: prostate of intact 28 day old male mice; test: PQ401 or SS14 treatment of intact 28 day old male mice: prostate; assay type: in vivo
# Description: To examine further the effect of various compounds on glandular and fibromuscular development of the prostate, somatostatin-14 (SS14, a native somatostatin) and an exemplary small molecule IGF-I receptor inhibitor PQ401 were assessed in a variety of animal models.
# In a first experimental approach, the effect of treatment of intact 28 day old male mice with vehicle or PQ401 (a small molecule IGF-I receptor specific inhibitor) or somatostatin-14 (SS14; a native somatostatin) was evaluated. PQ401 and SS14 inhibit IGF-I action. For these experiments, N=5 mice per group. The results of these experiments are presented below in Tables 7-10: […]
# [10] = tested on: IGF-I; test: IGF-I by RIA in homogenates of prostate glands after bGH; assay type: in vivo; settings: 87 day old male mice, bGH 200 μg daily for 4 days; untreated 223
# Description: IGF-I, as measured by RIA, was detected in homogenates of prostate glands from 87 day old male mice (223 ng/5 prostates). When bGH (200 μg daily for 4 days) was administered IGF-I rose to 418-526 ng/5 prostates. Serum IGF-I was 494 ng/ml in normal male mice. The IGF-I in prostate was likely produced there because bGH increases IGF-I mRNA in prostate.
# [11] = tested on: prostate of castrated Ames dwarf mice; test: IGFBP-1 inhibition of GH-induced prostate development in castrated Ames dwarf mice; assay type: in vivo; settings: 10-wk-old castrated Ames dwarf mice, 7 d
# Description: To determine whether IGF-I inhibition could impair prostate development induced by GH-stimulated IGF-I and normal development in eugonadal animals, the effect of IGFBP-1 was tested in the following two models.
# Ames dwarf mice have impaired prostate development because they are deficient in GH. They are also deficient in prolactin, TSH, and gonadotrophins (Andersen et al., 1995, Dev Biol 172:495-503; the entire content of which is incorporated herein by reference). To determine if IGFBP-1 could prevent bGH-induced IGF-I action, 10-wk-old castrated Ames animals were treated with bGH with or without infusion of IGFBP-1 for 7 d. IGFBP-1 inhibited GH-induced fibromuscular and glandular development (Table 6).
# [12] = tested on: prostate of Lit/Lit dwarf animals; test: bGH restoration of impaired prostate development in Lit/Lit dwarf animals; assay type: in vivo; settings: Lit/Lit dwarf mice
# Description: as §1
# The fact that GH treatment was capable of restoring impaired prostate development in GH deficient mice was shown in an experiment on Lit/Lit dwarf animals. Groups of animals were treated with either bGH (100 μg over 7 days by Alzet pump) or vehicle. The prostates were then removed and examined as described above. Treatment with bGH increased the number of TDTs from a mean of 48 (controls) to 61 (treated) p=0.011, the area of the gland from 0.71 cm^2 to 1.12 (NS), quaternary branching from 35 to 44 (p<0.01) and branch points from 37 to 46 (p=0.011).
# [13] = castrated IGF-I knockout male mice, 7 days treatment
# [14] = castrated at 56 days, hormones for 7 days (Table 5)
molecule,measurement,setting,value
"C[C@]12CC[C@H]3[C@@H](CCC4=CC(=O)CC[C@@]43C)[C@@H]1CC[C@@H]2O [TESTOSTERONE, testosterone]","% IGF-I receptor immunopositive cells, epithelium",[1]; prostate epithelium,0%
same,"% IGF-I receptor immunopositive cells, fibromuscular",[1]; prostate fibromuscular elements,95 ± 0.4%
same,restoring impaired prostate development,[2],partially but significantly restored
same,Area of prostatic component (mean values): Eptithelium,[3]; [13],"Eptithelium = 84,551.64 μm^2"
same,Area of prostatic component (mean values): Lumen,[3]; [13],"Lumen = 369,495.45 μm^2"
same,Area of prostatic component (mean values): Stroma (connective-muscle),[3]; [13],"Stroma (connective-muscle) = 89,797.254 μm^2"
same,Area of prostatic components (mean values): Total,[3]; [13],"Total = 543,844.34 μm^2"
same,Percentage of area: Eptithelium,[3]; [13],15%
same,Percentage of area: Lumen,[3]; [13],69%
same,Percentage of area: Stroma (connective-muscle),[3]; [13],16%
same,Mean area of prostatic component: Epithelium,[3]; [14],84 × 10^3 μm^2
same,Mean area of prostatic component: Fibromuscular tissue,[3]; [14],89 × 10^3 μm^2
same,Mean area of prostatic component: Lumen,[3]; [14],369 × 10^3 μm^2
same,Mean section size,[3]; [14],543 × 10^3a μm^2
same,percentage occupied: Epithelium,[3]; [14],(15%)^a
same,percentage occupied: Fibromuscular tissue,[3]; [14],(16%)^b
same,percentage occupied: Lumen,[3]; [14],(69%)^a
same,"4°- branching, ventral prostate",[4],8.0 ± 0.6 ^a
same,"Area, dorsal prostate",[4],0.15 ± 0.01 ^a cm^2
same,"Area, ventral prostate",[4],0.16 ± 0.01 ^a cm^2
same,"Branch Points, ventral prostate",[4],12.0 ± 1.2 ^
same,"Terminal Duct Tips, dorsal prostate",[4],17.0 ± 1.2 ^a
same,"Terminal Duct Tips, ventral prostate",[4],16.3 ± 1.2 ^
same,"Width of TDTs, dorsal prostate",[4],0.227 ± 0.003 ^b mm
same,"Width of TDTs, ventral prostate",[4],0.236 ± 0.003 ^b mm
same,probasin immunostaining in the epithelial cells of the prostate,[5],scattered number of probasin immunopositive epithelial cells
C[C@@H](O)[C@@H]1NC(=O)[C@H](CCCCN)NC(=O)[C@@H](Cc2c[nH]c3ccccc23)NC(=O)[C@H](Cc2ccccc2)NC(=O)[C@H](Cc2ccccc2)NC(=O)[C@H](CCCNC(=N)N)NC(=O)[C@H](NC(=O)[C@@H](N)Cc2ccc(O)cc2)CCNC(=O)[C@H](Cc2ccccc2)NC1=O [KE108] (H-Y[dDab]RFF[dW]KTF; lactam 2-C),stability in human serum,[6],stable for several hours
same,affinity for all five somatostatin receptor subtypes,[7],extremely high affinity
COc1ccc(Cl)cc1NC(=O)Nc1cc(C)nc2ccccc12 [PQ401],inhibition of IGF-IR signaling,[8],potent inhibitor
same,area of the Longitudinal muscle,"[9]; 28 day old male mice, controls 0.939",0.868 mm^2
same,total area of the Circular muscle,"[9]; 28 day old male mice, controls 1.322",0.789 mm^2
same,% Reduction of prostate weight,"[9]; intact 28 day old male mice, vs 28 day control",31%
same,prostate weight,"[9]; intact 28 day old male mice, control 26.8 ± 1.0, p < 0.0001",18.4 ± 0.5 mg
B1,restoring impaired prostate development,[2],no effect
same,IGF-I in homogenates of prostate glands (RIA),[10],418-526 ng/5 prostates
same,Epithelium,[11],"160.5 ± 4.0^c,d μm^2 (×10^3)"
same,Fibromuscular,[11],"253.4 ± 18.6^a,b μm^2 (×10^3)"
same,Lumen,[11],"274.7 ± 11.9^c,d μm^2 (×10^3)"
same,Total,[11],"688.6 ± 32.4^a,b μm^2 (×10^3)"
same,number of TDTs (mean),"[12]; bGH 100 μg over 7 days by Alzet pump, controls 48, p=0.011",61
same,area of the gland,"[12]; bGH 100 μg over 7 days, controls 0.71, NS",1.12 cm^2
same,quaternary branching,"[12]; bGH 100 μg over 7 days, controls 35, p<0.01",44
same,branch points,"[12]; bGH 100 μg over 7 days, controls 37, p=0.011",46
